How the values were obtained:
[1] = tested on: Proteus mirabilis (ATCC 29906); assay: Bacterial yield of facultatively grown Proteus mirabilis in urine:TSB (from optical density); assay type: cell-based; conditions: for Bacterial Yields: facultative
Protocol: Proteus mirabilis (ATCC 29906) were recovered from frozen state by growing the appropriate bacterial coated MicroBank Bead (Pro Lab, Austin Tex.) in 10 mL trypticase soy broth (TSB, Difco, Ann Arbor, Mich.) in a 15 mL sterile loosely tightened screw capped conical tube overnight at 37° C. The tube was held stationary. (E. coli (ATCC 8739), utilized in Example 6 herein, was recovered using the same procedure described herein for Proteus mirabilis). Upon observation of turbidity, the bacterial suspension was checked for purity by isolation plate and Gram stain. Once determined that the isolate was Proteus mirabilis (or E. coli in Example 6), a colony from the isolation plate was transferred to 10 mL of TSB in a 15 mL sterile screw capped conical tube and incubated overnight at 37° C. under facultative conditions. Samples of bacterial suspension resulting from this overnight TSB culture were used to initiate all experiments utilizing Proteus mirabilis bacteria (or E. coli in Example 6).
Proteus mirabilis was taken from a TSB culture (described in (1) above) and grown under various conditions for use in the Examples. For bacteria to be grown under aerobic conditions, 50 microliters of Proteus mirabilis was taken from a TSB culture prepared as described above and inoculated into a 50 mL volume of a freshly made 9:1 (by volume) pooled adult female urine:TSB mixture into a 250 mL shake flask. This mixture was rotated at 250 rpm at 37° C. overnight to grow the bacteria. For bacteria to be grown under facultative conditions, 10 microliters of Proteus mirabilis was taken from a TSB culture prepared as described above and inoculated into a 10 mL volume of a freshly made 9:1 (by volume) pooled adult female urine:TSB mixture into a 15 mL tube. The tube was loosely fitted with a screw cap, and held stationary at 37° C. overnight to grow the bacteria. For bacteria to be grown under anaerobic conditions, 10 microliters of Proteus mirabilis was taken from a TSB culture prepared as described above and inoculated into a 10 mL volume of a freshly made 9:1 (by volume) pooled adult female urine:TSB mixture into a 15 mL conical tube. The tube was purged with nitrogen and a screw cap tightly closed, and then was held stationary overnight at 37° C. to grow the bacteria.
In this Example, five samples were prepared and analyzed to determine: (1) Bacterial Yield (CFU/mL) calculated from optical density; (3) Percent viability of EPIOCULAR; and (4) EPIOCULAR IL-8. The samples included: (1) Deionized Water; (2) A urine:TSB mixture (9:1 by volume) as described above; (3) A urine:TSB mixture containing Proteus mirabilis bacteria grown under aerobic conditions as described above; (4) A urine:TSB mixture containing Proteus mirabilis bacteria grown under facultative conditions as described above; and (5) A urine:TSB mixture containing Proteus mirabilis bacteria grown under anaerobic conditions as described above.
In this Example, six different samples were prepared for analysis. The first sample comprised a urine:TSB mixture that was prepared in the same manner as that described in Example 1. […] The tube was loosely fitted with a screw cap, and held stationary at 37° C. overnight to grow the bacteria. […] The fifth sample comprising urine:TSB:Proteus mirabilis (facultatively grown) was prepared in the same manner as that described in Example 1.

Proteus mirabilis = assay: Growth of aerobically cultivated Proteus mirabilis in urine:TSB, microtiter serial dilution, optical density; assay type: cell-based; conditions: for optical density (bacterial cell growth): 48 hours at 37° C., aerobic, listed as 7 Hr.
Protocol: Proteus mirabilis was cultured in TSB as described in Example 1 and transferred to a urine:TSB mixture (9:1) and incubated under aerobic conditions as described in Example 1. […] In a 96-well microtiter plate with a lid, 150 microliters of each 10% solution was introduced into the first and second columns of the wells. Using a multi-channel pipette, 150 microliters of urine:TSB mixture was introduced into each well except the first column. Beginning at the second column of wells, serial dilutions were made by removing 150 microliters from the second column and transferring it to the third column. The mixture was mixed by pipetting up and down three times. The serial dilutions continued across each column of the plate and, after column 11, 150 microliters was discarded leaving column 12 as the 0% solution. Each well was then inoculated with 1 microliter of Proteus mirabilis, except for the negative control rows. One to three drops of anti-fogging solution was place on the plate lids with a cotton applicator, and allowed to air dry. The mixtures were incubated for 48 hours at 37° C. under aerobic conditions. After incubation of the samples, each was analyzed for bacterial cell growth utilizing the optical density procedure as set forth in Example 1.

mannitol peroxide
impact on the growth of the cells ([1]; 5% and 10% mannitol peroxide, facultative Proteus mirabilis (Table 4)): very little, if any, impact on the growth of the cells | Bacterial Yields ([1]; Table 3, 5% (w/v) mannitol peroxide, urine:TSB, 37° C. overnight): 1.30E+9 CFU/mL | Bacterial Yields ([1]; Table 3, 10% mannitol peroxide, urine:TSB, 37° C. overnight): 8.20E+8 CFU/mL | Bacterial Yields ([1]; Table 4, 5% mannitol peroxide): 1.30E+9 CFU/mL | Bacterial Yields ([1]; Table 4, 10% mannitol peroxide): 8.2E+8 CFU/mL | Bacterial Yields ([1]; Table 5, 5% (w/v) mannitol peroxide): 1.30E+9 CFU/mL | Bacterial Yields ([1]; Table 5, 10% (w/v) mannitol peroxide): 8.20E+8 CFU/mL | Bacterial Yields ([1]; Table 7, 5% mannitol peroxide): 8.93E+8 CFU/mL | optical density (bacterial cell growth) (Proteus mirabilis; 0.0097% in urine:TSB): 0.98 | optical density (bacterial cell growth) (Proteus mirabilis; 0.0195% in urine:TSB): 0.98 | optical density (bacterial cell growth) (Proteus mirabilis; 0.0391% in urine:TSB): 0.95 | optical density (bacterial cell growth) (Proteus mirabilis; 0.0785% in urine:TSB): 0.98 | optical density (bacterial cell growth) (Proteus mirabilis; 0.156% in urine:TSB): 1.00 | optical density (bacterial cell growth) (Proteus mirabilis; 0.313% in urine:TSB): 0.96 | optical density (bacterial cell growth) (Proteus mirabilis; 0.625% in urine:TSB): 0.99 | optical density (bacterial cell growth) (Proteus mirabilis; 1.25% in urine:TSB): 0.98 | optical density (bacterial cell growth) (Proteus mirabilis; 2.5% in urine:TSB): 0.97 | optical density (bacterial cell growth) (Proteus mirabilis; 5% in urine:TSB): 0.90 | optical density (bacterial cell growth) (Proteus mirabilis; 10% in urine:TSB): 0.82 | effect on the growth of the bacteria (Proteus mirabilis; heated at least about 7 hours at about 97° C. during synthesis, even at elevated concentrations): little effect on the growth of the bacteria
